Source: US20050192285A1, “Method of treatment” (priority 2000, published 2005)
Values joined by “and” are separate entries in the source; they are usually repeats but may differ in a detail not shown here. Equal values may be shown once.

Key:
[1] = GLOBE study: RTI-related hospitalizations over 26 weeks; type: in vivo, human; conditions: for percentage of patients hospitalized for RTI-related conditions / cumulative number of patients hospitalized for RTI-related conditions: 26 week study period; for cumulative number of patients hospitalized for RTI-related conditions: ITT (GEMI N=214, CLARI N=224)
Protocol: (§1) Prospective, 26 week, double-blind, observational parallel/follow-on study to an acute treatment efficacy and safety study (study 068) (Wilson, et al., Abstracts of the 40th Interscience Conference of Clinical Microbiology and Infectious Diseases, Toronto, Canada, Abstract 815 (2000)) in which patients randomly received a single course of either 5 days of oral GEMI 320mg once daily (o.d.) or 7 days of oral CLARI 500 mg twice daily (b.d.) for AECB (Wilson, et al., Abstracts of the 40th Interscience Conference of Clinical Microbiology and Infectious Diseases, Toronto, Canada, Abstract 815 (2000)).
(§2) Patients were assessed at screening (visit 1) at day 28-35 (visit 2) then at weeks 12 (visit 3) and 26 (visit 4) and by telephone at weeks 8, 17 and 21.
(§3) Information was collected on: recurrent episodes of AECB requiring antimicrobial treatment; use of medical resources related to respiratory tract infection (RTI), including RTI-related:- hospitalizations, physician visits and antimicrobial therapy; time off work and usual activities; and negative impact on performance at work or during usual activities.
Medical resource utilization was analyzed on cumulative data across all patients in the ITT population.

[2] = cited from earlier work
H. influenzae = conditions: subset of patients with daily sputum cultures; p=0.02; cited from earlier work
[3] = GLOBE study: recurrence of AECB requiring antimicrobial treatment over 26 weeks; type: in vivo, human; conditions: for Difference GEMI-CLARI in % patients with no recurrences / % patients resolved and with no recurrences of AECB: ITT; for % patients resolved and with no recurrences of AECB: GEMI 320 mg o.d./5 days, CLARI 500 mg b.d./7 days
Protocol: Background: Few health outcome studies have been reported for antimicrobial treatment of acute infections. In one study, trends favoring ciprofloxacin versus ‘usual care’ in terms of clinical outcomes were found (Grossman, et al., Chest, 113:131-141 (1998)). In this double-blind, prospective long-term study, patients who enrolled into a study comparing 320 mg gemifloxacin (GEMI) once daily (o.d.)/5 days with 500 mg clarithromycin (CLARI) twice daily (b.d.)/7 days for the treatment of AECB, and agreed at enrollment to continue in the study for up to 26 weeks, were assessed for clinical status and use of health care resources.
Methods: Clinical assessments were performed at screening (day 0), week 4-5 (end of acute study), weeks 12 and 26 and by telephone at weeks 8, 17 and 21.
as §1
All patients entering study 068 at centers in the USA and Canada were asked to participate in the GLOBE study.
as §2, §3
Clinical outcomes were analyzed for patients in the intention to treat population (ITT) who were available for assessment at 26 weeks (visit 4).

SMILES	RTI-related hospitalization days per 100 patients ([1]; 26-week study period) [days per 100 patients]	Cumulative number of RTI-related hospitalization days, mean (SD) ([1]; 26-week study period, ITT)	Cumulative number of RTI-related hospitalization days, median (range) ([1]; 26-week study period, ITT)	percentage of patients hospitalized for RTI-related conditions ([1]; ITT) [%]	cumulative number of patients hospitalized for RTI-related conditions [1]	RTI-related hospitalizations across all visits, percentage ([1]; 26 weeks, ITT) [%]	cumulative number of RTI-related hospitalizations across all visits ([1]; 26 weeks, ITT)	patients with a recurrence of AECB ([3]; by week 26) [%]	% patients resolved and with no recurrences of AECB ([3]; visit 2 (day 28-35))	% patients resolved and with no recurrences of AECB ([3]; visit 3 (week 12))	% patients resolved and with no recurrences of AECB ([3]; visit 4 (week 26))	other results
CO/N=C1\CN(c2nc3c(cc2F)c(=O)c(C(=O)O)cn3C2CC2)CC1CN (racemic) [GEMI, (R,S)-7-(3-aminomethyl-4-methoxyiminopyrrolidin-1-yl)-1-cyclopropyl-6-fluoro-4-oxo-1,4-dihydro-1,8-naphthyridine-3-carboxylic acid]	20	0.20 (1.43) days	0 (0-16) days	2.3	5	3.3	7	29.0	87.1 (176/202) %	80.9 (148/183) %	71.0% and 71.0 (120/169) %	Median difference gemifloxacin-clarithromycin in RTI-related hospitalization days (95% CI) ([1]; 26-week study period, ITT): 0 (0, 0) days; treatment difference in RTI-related hospitalizations ([1]; GEMI minus CLARI, 26 weeks): −3.87%; treatment difference in patients hospitalized for RTI-related conditions ([1]; GEMI minus CLARI, 26 weeks): −3.91%; effectiveness of acute treatment compared with CLARI ([2]; 5 days GEMI vs 7 days CLARI): as effective as; bacteriological success rates compared with CLARI ([2]; all study visits, significantly higher at late follow-up days 28-35): higher; time to H. influenzae eradication compared with CLARI (H. influenzae): significantly faster; preventing further exacerbations versus CLARI ([3]; 6 month period following start of therapy, GEMI 320 mg o.d./5 days vs CLARI 500 mg b.d./7 days): superior to CLARI; long-term clinical outcomes in AECB compared to clarithromycin ([3]; GLOBE conclusions): superior; fewer patients with a recurrence of AECB compared with CLARI ([3]; by week 26, relative reduction (29.0% vs. 41.5%)): 30%; Difference GEMI-CLARI in % patients with no recurrences ([3]; visit 2 (day 28-35)): 6.3%; Difference GEMI-CLARI in % patients with no recurrences ([3]; visit 3 (week 12)): 6.4%; Difference GEMI-CLARI in % patients with no recurrences ([3]; visit 4 (week 26)): 12.5% and 12.5^b %
CC[C@H]1OC(=O)[C@H](C)[C@@H](O[C@H]2C[C@@](C)(OC)[C@@H](O)[C@H](C)O2)[C@H](C)[C@@H](O[C@@H]2O[C@H](C)C[C@H](N(C)C)[C@H]2O)[C@](C)(OC)C[C@@H](C)C(=O)[C@H](C)[C@@H](O)[C@]1(C)O [CLARI, clarithromycin, reference compound]	37	0.37 (1.60) days	0 (0-11) days	6.3	14	7.1	16	41.5	80.8 (173/214) %	74.4 (131/176) %	58.5% and 58.5 (100/171) %	–
